Patent publication US7309484B2, “Compositions and methods for screening antibacterial compounds” (priority 2003, dated 2007)
≈ marks a conversion by molar mass, not a printed value. Read-outs that look alike come from different tables or passages of the source. Bridge positions count the residues as written; N and C are the ends. Square brackets hold non-standard residues; d marks the D form. Peptide text beside a SMILES is read from it. * marks the point of attachment. Ileψ(thiazoline)Cys = CC[C@H](C)[C@H](N)C1=N[C@H](C(=O)*)CS1; dOrn = NCCC[C@@H](N)C(=O)O

Columns and labels:
[1] = system: B. subtilis liaH mutant HB0920 gene expression; assay: microbe, parasite or virus in culture; type: cell-based, Bacillus subtilis; conditions: for fold induction at 100 µg/mL: Bacillus subtilis; for Fold induction 15 min / Fold induction 5 min: 100 μg/mL, listed as zinc-bacitracin
From the text: The bacitracin stimulon of B. subtilis was examined using global transcriptome analysis. […] Under most conditions tested, about 60-70 genes were induced greater than 5-fold. […] The scatter-plot represents the data sets obtained for strain HB0920 (yvqH was still detected as bacitracin-inducible due to the presence of a remaining region near the 5′-end of the gene). […] Members of the σ^M (white open squares) and σ^B (small black triangles) regulon are highlighted. All other gene signals are represented as small gray diamonds. Note that for the generation of this graphical display the data sets could not be filtered to remove low quality and non-reproducible signals, thus some of the background signals (small gray diamonds) that appear to represent highly regulated genes are not significant.
The liaH-deletion mutant was included in the analysis because the well-characterized LiaH-homologue in E. coli, PspA, functions as a repressor of transcription (Adams et al., 2003, J Bacteriol. 185: 1174-1180; Bordes et al., 2003, Proc Natl Acad Sci USA. 100: 2278-2283, the entire teachings of which are incorporated herein by reference). […] Similar results were obtained with CU1065.
For microarray analysis 100 mL of LB medium were inoculated from a fresh overnight LB-plate and incubated at 37° C. with aeration until the culture reached an O.D.600≈0.45, when the culture was split: 30 mL served as an un-induced control. To the remaining culture bacitracin was added to a final concentration of 100 μg/mL and 30 mL samples were taken 5 and 15 min after addition. The cells were harvested by centrifugation at room temperature and cell pellets were shock frozen and stored at −70° C. for at least 30 min. […] After extraction the RNA was purified using the RNA clean-up protocol of the RNeasy kit (Qiagen) with on-column DNase treatment in order to remove abundant small RNA molecules (tRNAs and 5S rRNA) and residual genomic DNA.
Each slide contains 9220 features corresponding to duplicate copies of each open reading frame, additional PCR products for some ORFs, rRNA genes, and other controls. RNA preparations were used to synthesize Cy3- and Cy5-labeled cDNA and hybridization was performed as described (Ye et al., 2000, J Bacteriol. 182: 4458-4465; Ye et al., 2001, J Microbiol Methods. 47: 257-272, the entire teaching of which are incorporated herein by reference). All comparisons were performed twice (once each with Cy3 and Cy5) to control for possible differences in labeling efficiency between fluorophores. Fluorescent signal intensity data was quantified using ArrayVision software (Molecular Dynamics) and normalized to the total detectable mRNA. Mean fluorescence intensity is set to 1.0 with a value of 0.1 corresponding to background. Each expression ratio is represented by at least four separate measurements (duplicate spots on each of two slides).

[2] = system: B. subtilis CU1065 and isogenic deletion mutants; assay: Minimal inhibitory concentration (MIC), microtiter-plate assay; type: cell-based, Bacillus subtilis; conditions: for MIC: Bacillus subtilis
Description: Since B. subtilis is closely related to the bacitracin-producing strains, it seemed likely that a similar system as described for B. licheniformis could exist in CU1065. The identification of two loci encoding ABC transporters that are under the bacitracin-inducible control of a two-component system supported this hypothesis. […] All strains were grown in microtiter-plates for 4 hours after dilution into LB medium containing the indicated concentrations of bacitracin. The experiment was done in triplicate and a representative result is shown. Strains used were: CU1065 (black squares), ‘bacR’ (HB0927, open diamonds), ‘bacAB’ (HB0928, black diamonds), ‘sigM’ (HB0031, open circles), ‘bcrC’ HB0106 (closed circles), ‘bcrC/bacAB’ (HB0937, black triangle). Compare also with Table 1.
Determination of the minimal inhibitory concentration (MIC): MIC-assays were performed in microtiter plates using a ‘Tecan Spectra Rainbow’ microtiter plate reader. […] Tenfold dilution of these cultures were inoculated in a total volume of 200 μl/well with increasing quantities of bacitracin, ranging from 0.01 to 1000 μg/mL (final concentration). The plates were incubated at 37° C. and the O.D.600 was read after 4 hours, when cultures had reached their final cell density. All experiments were performed in triplicate.

CC[C@H](C)[C@H](N)C1=N[C@H](C(=O)N[C@@H](CC(C)C)C(=O)N[C@H](CCC(=O)O)C(=O)N[C@H](C(=O)N[C@H]2CCCCNC(=O)[C@H](CC(N)=O)NC(=O)[C@@H](CC(=O)O)NC(=O)[C@H](Cc3cnc[nH]3)NC(=O)[C@@H](Cc3ccccc3)NC(=O)[C@H]([C@@H](C)CC)NC(=O)[C@@H](CCCN)NC2=O)[C@@H](C)CC)CS1 [Bacitracin] ({Ileψ(thiazoline)Cys}-L[dE]IK[dOrn]I[dF]H[dD]N; lactam 4-C)
fold induction at 100 µg/mL ([1]; 5 min, read-out: Fold induction 5 min, gene bcrC, 100 μg/mL, 5 min): ~10 | fold induction at 100 µg/mL ([1]; 5 min, read-out: Fold induction 5 min, gene cadA (yvgW), 100 μg/mL, 5 min): 58 | fold induction at 100 µg/mL ([1]; 5 min, read-out: Fold induction 5 min, gene cotY, 100 μg/mL, 5 min): 9.4 | fold induction at 100 µg/mL ([1]; 5 min, read-out: Fold induction 5 min, gene czcD, 100 μg/mL, 5 min): 61 | fold induction at 100 µg/mL ([1]; 5 min, read-out: Fold induction 5 min, gene czcO (trkA), 100 μg/mL, 5 min): 33 | fold induction at 100 µg/mL ([1]; 5 min, read-out: Fold induction 5 min, gene ydhK, 100 μg/mL, 5 min): 12 | fold induction at 100 µg/mL ([1]; 5 min, read-out: Fold induction 5 min, gene yetG, 100 μg/mL, 5 min): 1.4 | fold induction at 100 µg/mL ([1]; 5 min, read-out: Fold induction 5 min, gene ykvS, 100 μg/mL, 5 min): 5.9 | fold induction at 100 µg/mL ([1]; 5 min, read-out: Fold induction 5 min, gene ytzB, 100 μg/mL, 5 min): 2.8 | fold induction at 100 µg/mL ([1]; 5 min, read-out: Fold induction 5 min, gene yybR, 100 μg/mL, 5 min): 5.4 | fold induction at 100 µg/mL ([1]; 5 min, read-out: Fold induction 5 min, gene(s) bacAB (ytsCD), 100 μg/mL, 5 min): 280 | fold induction at 100 µg/mL ([1]; 5 min, read-out: Fold induction 5 min, gene(s) gerAA/AB, 100 μg/mL, 5 min): 7.1 | fold induction at 100 µg/mL ([1]; 5 min, read-out: Fold induction 5 min, gene(s) ycgRQ, 100 μg/mL, 5 min): 6.7 | fold induction at 100 µg/mL ([1]; 5 min, read-out: Fold induction 5 min, gene(s) ygaCD, 100 μg/mL, 5 min): 2 | fold induction at 100 µg/mL ([1]; 5 min, read-out: Fold induction 5 min, gene(s) yhcYZ-yhdA, 100 μg/mL, 5 min): 20 | fold induction at 100 µg/mL ([1]; 5 min, read-out: Fold induction 5 min, gene(s) yjbIH, 100 μg/mL, 5 min): 5.2 | fold induction at 100 µg/mL ([1]; 5 min, read-out: Fold induction 5 min, gene(s) ykuNOP, 100 μg/mL, 5 min): 1.4 | fold induction at 100 µg/mL ([1]; 5 min, read-out: Fold induction 5 min, gene(s) ytrBCDEF, 100 μg/mL, 5 min): 9.1 | fold induction at 100 µg/mL ([1]; 5 min, read-out: Fold induction 5 min, gene(s) yvcRS, 100 μg/mL, 5 min): 12 | fold induction at 100 µg/mL ([1]; 5 min, read-out: Fold induction 5 min, gene(s) yvqGFEC, 100 μg/mL, 5 min): 6 | fold induction at 100 µg/mL ([1]; 5 min, read-out: Fold induction 5 min, gene(s) yvqIH, 100 μg/mL, 5 min): 772 | fold induction at 100 µg/mL ([1]; 0.25 h, read-out: Fold induction 15 min, gene bcrC, 100 μg/mL, 15 min): ~10 | fold induction at 100 µg/mL ([1]; 0.25 h, read-out: Fold induction 15 min, gene cadA (yvgW), 100 μg/mL, 15 min): 9.8 | fold induction at 100 µg/mL ([1]; 0.25 h, read-out: Fold induction 15 min, gene cotY, 100 μg/mL, 15 min): 5.9 | fold induction at 100 µg/mL ([1]; 0.25 h, read-out: Fold induction 15 min, gene czcD, 100 μg/mL, 15 min): 3.8 | fold induction at 100 µg/mL ([1]; 0.25 h, read-out: Fold induction 15 min, gene czcO (trkA), 100 μg/mL, 15 min): 2.8 | fold induction at 100 µg/mL ([1]; 0.25 h, read-out: Fold induction 15 min, gene ydhK, 100 μg/mL, 15 min): 4.4 | fold induction at 100 µg/mL ([1]; 0.25 h, read-out: Fold induction 15 min, gene yetG, 100 μg/mL, 15 min): 10 | fold induction at 100 µg/mL ([1]; 0.25 h, read-out: Fold induction 15 min, gene ykvS, 100 μg/mL, 15 min): 10 | fold induction at 100 µg/mL ([1]; 0.25 h, read-out: Fold induction 15 min, gene ytzB, 100 μg/mL, 15 min): 11 | fold induction at 100 µg/mL ([1]; 0.25 h, read-out: Fold induction 15 min, gene yybR, 100 μg/mL, 15 min): 3.7 | fold induction at 100 µg/mL ([1]; 0.25 h, read-out: Fold induction 15 min, gene(s) bacAB (ytsCD), 100 μg/mL, 15 min): 360 | fold induction at 100 µg/mL ([1]; 0.25 h, read-out: Fold induction 15 min, gene(s) gerAA/AB, 100 μg/mL, 15 min): 4.2 | fold induction at 100 µg/mL ([1]; 0.25 h, read-out: Fold induction 15 min, gene(s) ycgRQ, 100 μg/mL, 15 min): 7.9 | fold induction at 100 µg/mL ([1]; 0.25 h, read-out: Fold induction 15 min, gene(s) ygaCD, 100 μg/mL, 15 min): 12 | fold induction at 100 µg/mL ([1]; 0.25 h, read-out: Fold induction 15 min, gene(s) yhcYZ-yhdA, 100 μg/mL, 15 min): 14 | fold induction at 100 µg/mL ([1]; 0.25 h, read-out: Fold induction 15 min, gene(s) yjbIH, 100 μg/mL, 15 min): 7.1 | fold induction at 100 µg/mL ([1]; 0.25 h, read-out: Fold induction 15 min, gene(s) ykuNOP, 100 μg/mL, 15 min): 12 | fold induction at 100 µg/mL ([1]; 0.25 h, read-out: Fold induction 15 min, gene(s) ytrBCDEF, 100 μg/mL, 15 min): 9.7 | fold induction at 100 µg/mL ([1]; 0.25 h, read-out: Fold induction 15 min, gene(s) yvcRS, 100 μg/mL, 15 min): 24 | fold induction at 100 µg/mL ([1]; 0.25 h, read-out: Fold induction 15 min, gene(s) yvqGFEC, 100 μg/mL, 15 min): 7 | fold induction at 100 µg/mL ([1]; 0.25 h, read-out: Fold induction 15 min, gene(s) yvqIH, 100 μg/mL, 15 min): 1060 | Fold induction 15 min ([1]; gene bcrC): 9.5 fold | Fold induction 5 min ([1]; gene(s) bacAB (ytsCD), 5 min): 282 fold | Fold induction 15 min ([1]; gene(s) bacAB (ytsCD)): 365 fold | Fold induction 5 min ([1]; gene(s) yhcYZ-yhdA, 5 min): 21 fold | Fold induction 15 min ([1]; gene(s) yvcRS): 25 fold | Fold induction 5 min ([1]; gene(s) yvqGFEC, 5 min): 6.1 fold | MIC ([2]; 4 h, read-out: Bacitracin MIC, mutant in bacAB (ytsCD), LB, 4 hours): 10 µg/mL (≈ 7.03 µM) | MIC ([2]; 4 h, read-out: Bacitracin MIC, mutant in bcrC, LB, 4 hours): 25 µg/mL (≈ 17.6 µM) | MIC ([2]; read-out: bacitracin-resistance (MIC), bcrC/bceAB double mutant (HB0937)): 2.5 µg/mL (≈ 1.76 µM) | MIC ([2]; read-out: bacitracin-resistance (MIC), wild type strain (CU1065)): 500 µg/mL (≈ 351 µM) | reduction in MIC compared to CU1065 ([2]; bceAB deletion): 50 fold | reduction in MIC compared to CU1065 ([2]; bceR deletion): 50 fold | decrease of bacitracin-resistance compared to the wild type strain ([2]; bcrC/bceAB double mutant): 200 fold
